{"source": "ChEMBL document CHEMBL1134995", "about": "“Enhancement of pharmacokinetic properties and in vivo efficacy of benzylidene ketal M(2) muscarinic receptor antagonists via benzamide modification” (Bioorg Med Chem Lett, 2002)", "key": {"[1]": {"target": "T1, Muscarinic acetylcholine receptor M2 (Rattus norvegicus, UniProt P10980)", "T1 sequence (P10980 whole entry)": "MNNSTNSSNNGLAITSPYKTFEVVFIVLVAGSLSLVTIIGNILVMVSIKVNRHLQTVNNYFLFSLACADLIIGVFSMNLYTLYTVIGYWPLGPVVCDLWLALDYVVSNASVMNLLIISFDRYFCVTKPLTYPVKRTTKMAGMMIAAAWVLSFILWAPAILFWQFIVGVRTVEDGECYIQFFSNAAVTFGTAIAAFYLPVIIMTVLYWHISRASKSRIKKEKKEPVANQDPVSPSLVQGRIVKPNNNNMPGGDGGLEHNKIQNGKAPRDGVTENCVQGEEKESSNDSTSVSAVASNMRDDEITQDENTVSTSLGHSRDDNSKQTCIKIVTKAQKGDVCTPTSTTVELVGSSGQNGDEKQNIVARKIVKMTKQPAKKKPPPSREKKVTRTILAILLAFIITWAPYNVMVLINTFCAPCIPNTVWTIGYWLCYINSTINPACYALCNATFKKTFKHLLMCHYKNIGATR", "experiment": "Binding affinity towards Muscarinic acetylcholine receptor M2"}, "Rattus norvegicus [2]": {"species": "Rattus norvegicus", "experiment": "Efficacy was tested in a rat microdialysis assay where ACh release levels were measured", "type": "functional"}, "[3]": {"target": "Muscarinic receptor M1 and M2 (Rattus norvegicus) (UniProt P08482+P10980)", "sequence (P08482 whole entry, looked up, one chain of several)": "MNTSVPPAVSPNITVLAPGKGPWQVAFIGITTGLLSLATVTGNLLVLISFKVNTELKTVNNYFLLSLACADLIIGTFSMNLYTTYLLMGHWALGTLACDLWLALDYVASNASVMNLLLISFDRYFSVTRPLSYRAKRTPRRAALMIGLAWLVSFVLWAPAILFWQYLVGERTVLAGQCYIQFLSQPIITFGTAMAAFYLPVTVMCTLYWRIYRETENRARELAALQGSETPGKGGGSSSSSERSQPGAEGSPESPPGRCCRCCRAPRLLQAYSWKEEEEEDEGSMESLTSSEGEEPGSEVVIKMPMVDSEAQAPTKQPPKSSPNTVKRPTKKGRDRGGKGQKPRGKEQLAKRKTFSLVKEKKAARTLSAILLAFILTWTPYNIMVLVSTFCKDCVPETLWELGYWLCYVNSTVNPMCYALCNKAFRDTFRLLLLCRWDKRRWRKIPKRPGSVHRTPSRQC", "experiment": "Ratio of binding affinity of muscarinic M1 receptor to muscarinic M2 receptor", "type": "protein assay"}, "[4]": {"target": "Muscarinic receptor M2 and M3 (Rattus norvegicus) (UniProt P08483+P10980)", "sequence (P08483 whole entry, looked up, one chain of several)": "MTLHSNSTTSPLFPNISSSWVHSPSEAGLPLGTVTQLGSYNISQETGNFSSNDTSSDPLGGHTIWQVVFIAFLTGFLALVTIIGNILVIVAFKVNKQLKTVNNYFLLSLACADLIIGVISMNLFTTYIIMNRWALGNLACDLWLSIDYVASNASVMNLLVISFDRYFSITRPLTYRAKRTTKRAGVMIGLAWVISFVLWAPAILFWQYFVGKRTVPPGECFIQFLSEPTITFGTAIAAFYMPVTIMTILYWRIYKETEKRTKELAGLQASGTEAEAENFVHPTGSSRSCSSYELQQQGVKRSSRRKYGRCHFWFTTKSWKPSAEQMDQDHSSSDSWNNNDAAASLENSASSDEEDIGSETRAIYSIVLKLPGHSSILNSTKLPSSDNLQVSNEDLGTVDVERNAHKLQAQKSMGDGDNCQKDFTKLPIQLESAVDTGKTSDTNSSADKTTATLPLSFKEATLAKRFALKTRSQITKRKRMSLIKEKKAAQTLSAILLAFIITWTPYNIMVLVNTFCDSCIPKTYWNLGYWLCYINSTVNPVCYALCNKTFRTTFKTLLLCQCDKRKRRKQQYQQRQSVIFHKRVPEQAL", "experiment": "Ratio of binding affinity for muscarinic M3 receptor to muscarinic M2 receptor", "type": "protein assay"}, "[5]": {"experiment": "Area under curve was determined"}, "[6]": {"experiment": "Oral bioavailability in rats was determined; High", "type": "ADME, organism-based", "conditions": "rat, in vivo"}, "Rattus norvegicus [7]": {"test_system": "Rattus norvegicus", "experiment": "Effect of compound on heart rate in rats at 1 mg/kg was determined; Not effected", "type": "functional, organism-based", "parameters": "dose 1 mg/kg"}, "Rattus norvegicus [8]": {"test_system": "Rattus norvegicus", "experiment": "Effect of compound on heart rate in rats at 3 and 10 mg/kg was determined; Increase", "type": "functional, organism-based", "parameters": "dose 10 mg/kg"}, "Rattus norvegicus [9]": {"test_system": "Rattus norvegicus", "experiment": "Compound was tested for activity in rat passive avoidance response (PAR) experiment, pretreatment time 1 hr with oral dose ranging from 0.001 to 0.1 mg/kg; Active", "type": "functional, organism-based"}, "[10]": {"experiment": "Oral bioavailability in cynomolgus monkeys was determined; Acceptable", "type": "ADME, organism-based, Macaca fascicularis", "conditions": "cynomolgus monkey, in vivo"}}, "note": "pKi: −log10 of the molar value. Active and inactive are the calls of the source. The calls are words filed in the database; no cut-off is given here."}
{"compound": "COc1ccc(S(=O)(=O)c2ccc(C3(C4CCN(C5CCN(C(=O)c6ccccc6Cl)CC5)CC4)OCCO3)cc2)cc1", "values": [{"measurement": "pKi", "setting": "[1]", "result": 8.80}]}
{"compound": "COc1ccc(S(=O)(=O)c2ccc(C3(C4CCN(C5CCN(C(=O)c6ccccc6Br)CC5)CC4)OCCO3)cc2)cc1", "values": [{"measurement": "pKi", "setting": "[1]", "result": 8.74}]}
{"compound": "COc1ccc(S(=O)(=O)c2ccc(C3(C4CCN(C5CCN(C(=O)c6ccc(F)c7ccccc67)CC5)CC4)OCCO3)cc2)cc1", "values": [{"measurement": "Acetylcholine release", "setting": "Rattus norvegicus [2]", "result": 180, "unit": "%"}]}
{"compound": "COc1ccc(S(=O)(=O)c2ccc(C3(C4CCN(C5CCN(C(=O)c6ccccc6C)CC5)CC4)O[C@H](C)[C@@H](C)O3)cc2)cc1", "values": [{"measurement": "pKi", "setting": "[1]", "result": 7.74}, {"measurement": "Ratio", "setting": "[3]", "result": 32}]}
{"compound": "COc1ccc(S(=O)(=O)c2ccc(C3(C4CCN(C5CCN(C(=O)c6cc(F)ccc6N)CC5)CC4)OCCO3)cc2)cc1", "values": [{"measurement": "pKi", "setting": "[1]", "result": 9.17}]}
{"compound": "COc1ccc(S(=O)(=O)c2ccc(C3(C4CCN(C5CCN(C(=O)c6ccccc6OC)CC5)CC4)OCCO3)cc2)cc1", "values": [{"measurement": "pKi", "setting": "[1]", "result": 8.92}]}
{"compound": "COc1ccc(S(=O)(=O)c2ccc(C3(C4CCN(C5CCN(C(=O)c6c(Cl)cccc6Cl)CC5)CC4)OCCO3)cc2)cc1", "values": [{"measurement": "pKi", "setting": "[1]", "result": 8.64}]}
{"compound": "COc1ccc(S(=O)(=O)c2ccc(C3(C4CCN(C5CCN(C(=O)c6ccccc6F)CC5)CC4)OCCO3)cc2)cc1", "values": [{"measurement": "pKi", "setting": "[1]", "result": 8.32}, {"measurement": "Ratio", "setting": "[3]", "result": 49}, {"measurement": "Ratio", "setting": "[4]", "result": 8}]}
{"compound": "Cc1ccccc1C(=O)N1CCC(N2CCC(C3(c4ccc(S(=O)(=O)c5ccc6c(c5)OCO6)cc4)OCCO3)CC2)CC1", "values": [{"measurement": "pKi", "setting": "[1]", "result": 10.19}, {"measurement": "Ratio", "setting": "[3]", "result": 28}, {"measurement": "Ratio", "setting": "[4]", "result": 8}]}
{"compound": "COc1ccc(S(=O)(=O)c2ccc(C3(C4CCN(C5CCN(C(=O)c6cccc(C)c6C)CC5)CC4)OCCO3)cc2)cc1", "values": [{"measurement": "pKi", "setting": "[1]", "result": 8.85}, {"measurement": "Ratio", "setting": "[3]", "result": 66}, {"measurement": "Ratio", "setting": "[4]", "result": 40}]}
{"compound": "CNc1ccccc1C(=O)N1CCC(N2CCC(C3(c4ccc(S(=O)(=O)c5ccc(OC)cc5)cc4)OCCO3)CC2)CC1", "values": [{"measurement": "pKi", "setting": "[1]", "result": 9.05}]}
{"compound": "COc1ccc(S(=O)(=O)c2ccc(C3(C4CCN(C5CCN(C(=O)c6ccccc6C)CC5)CC4)SCCS3)cc2)cc1", "values": [{"measurement": "pKi", "setting": "[1]", "result": 9.07}, {"measurement": "Ratio", "setting": "[3]", "result": 89}, {"measurement": "Ratio", "setting": "[4]", "result": 15}]}
{"compound": "COc1ccc(S(=O)(=O)c2ccc(C3(C4CCN(C5CCN(C(=O)c6cccc(Cl)c6C)CC5)CC4)OCCO3)cc2)cc1", "values": [{"measurement": "pKi", "setting": "[1]", "result": 9.14}, {"measurement": "Ratio", "setting": "[3]", "result": 42}]}
{"compound": "COc1ccc(S(=O)(=O)c2ccc(C3(C4CCN(C5CCN(C(=O)c6ccc(F)cc6N)CC5)CC4)OCCO3)cc2)cc1", "values": [{"measurement": "pKi", "setting": "[1]", "result": 9.36}]}
{"compound": "COc1ccc(S(=O)(=O)c2ccc(C3(C4CCN(C5CCN(C(=O)c6cccc(Cl)c6N)CC5)CC4)OCCO3)cc2)cc1", "values": [{"measurement": "pKi", "setting": "[1]", "result": 8.96}]}
{"compound": "COc1ccc(S(=O)(=O)c2ccc(C3(C4CCN(C5CCN(C(=O)c6cccc(F)c6N)CC5)CC4)OCCO3)cc2)cc1", "values": [{"measurement": "pKi", "setting": "[1]", "result": 9.29}]}
{"compound": "COc1ccc(S(=O)(=O)c2ccc(C3(C4CCN(C5CCN(C(=O)c6ccccc6C(F)(F)F)CC5)CC4)OCCO3)cc2)cc1", "values": [{"measurement": "pKi", "setting": "[1]", "result": 9.00}]}
{"compound": "COc1ccc(S(=O)(=O)c2ccc(C3(C4CCN(C5CCN(C(=O)c6ccccc6N)CC5)CC4)OCCO3)cc2)cc1", "values": [{"measurement": "pKi", "setting": "[1]", "result": 8.82}]}
{"compound": "COc1ccc([S+]([O-])c2ccc(C3(C4CCN(C5CCN(C(=O)c6ccccc6C)CC5)CC4)O[C@H](C)[C@@H](C)O3)cc2)cc1", "note": "(some centres not stated)", "values": [{"measurement": "pKi", "setting": "[1]", "result": 7.29}, {"measurement": "Ratio", "setting": "[3]", "result": 14}]}
{"compound": "COc1ccc(S(=O)(=O)c2ccc(C3(C4CCN(C5CCN(C(=O)c6cccc(C)c6N)CC5)CC4)OCCO3)cc2)cc1", "values": [{"measurement": "AUC", "setting": "[5]", "result": 1570, "unit": "ng·h/mL"}, {"measurement": "bioavailability", "setting": "[6]", "result": 80, "unit": "%"}, {"measurement": "Heart rate", "setting": "Rattus norvegicus [7]", "result": "inactive"}, {"measurement": "pKi", "setting": "[1]", "result": 9.41}, {"measurement": "Heart rate", "setting": "Rattus norvegicus [8]", "result": "Increased heart rate"}, {"measurement": "Activity", "setting": "Rattus norvegicus [9]", "result": "Active"}, {"measurement": "bioavailability", "setting": "[10]", "result": 15, "unit": "%"}, {"measurement": "Acetylcholine release", "setting": "Rattus norvegicus [2]", "result": 194, "unit": "%"}]}
{"compound": "COc1ccc(S(=O)(=O)c2ccc(C3(C4CCN(C5CCN(C(=O)c6cccc(N)c6C)CC5)CC4)OCCO3)cc2)cc1", "values": [{"measurement": "pKi", "setting": "[1]", "result": 9.40}]}
{"compound": "COc1ccc([S+]([O-])c2ccc(C3(C4CCN(C5CCN(C(=O)c6ccccc6C)CC5)CC4)OCCO3)cc2)cc1", "note": "(configuration not stated)", "values": [{"measurement": "pKi", "setting": "[1]", "result": 8.60}, {"measurement": "Ratio", "setting": "[3]", "result": 146}, {"measurement": "Ratio", "setting": "[4]", "result": 35}]}
{"compound": "COc1ccc(S(=O)(=O)c2ccc(C3(C4CCN(C5CCN(C(=O)c6cccc(N)c6Cl)CC5)CC4)OCCO3)cc2)cc1", "values": [{"measurement": "pKi", "setting": "[1]", "result": 9.28}, {"measurement": "Acetylcholine release", "setting": "Rattus norvegicus [2]", "result": 135, "unit": "%"}]}
{"compound": "COc1ccc(S(=O)(=O)c2ccc(C3(C4CCN(C5CCN(C(=O)c6cc(N)ccc6Cl)CC5)CC4)OCCO3)cc2)cc1", "values": [{"measurement": "pKi", "setting": "[1]", "result": 9.28}]}
{"compound": "COc1ccc(S(=O)(=O)c2ccc(C3(C4CCN(C5CCN(C(=O)c6cccc(N)c6)CC5)CC4)OCCO3)cc2)cc1", "values": [{"measurement": "pKi", "setting": "[1]", "result": 9.11}]}
{"compound": "COc1ccc(S(=O)(=O)c2ccc(C3(C4CCN(C5CCN(C(=O)c6ccccc6C)CC5)CC4)OCCO3)cc2)cc1", "values": [{"measurement": "pKi", "setting": "[1]", "result": 9.27}]}
